# Test results from patent US6194601A, “5,6-dihydronaphthalenyl derivatives having retinoid-like activity” (Bristol-Myers Squibb Company, priority 1999, dated 2001).
# Entries after “also recorded” stand apart in the source; their conditions may differ. Where two headings read alike, the source gives them in different places.
# Assays:
# [1] = rabbit skin irritation model; type: in vivo; details: rabbit, in vivo, topical or ocular; from IS3 and ED30, Table 4; read-out: Therapeutic index
# [2] = system: rabbit skin; assay: rabbit skin irritation model; type: in vivo; details: for Erythema score: Table 3, topical daily 14 days, ethanol; for IS3, irritation relative to TRA: species not given
# [3] = system: H3396 Breast CA (E2-dep.); assay: inhibition of cell proliferation (3H-thymidine uptake), H3396; type: cell-based; details: Homo sapiens
# Method: (§1) The compounds of the present invention have been also tested as inhibitors of cell proliferation (^3 H-thymidine uptake). Cells were plated on 96-well plates at a pre-determined density so that 80% cellular confluency is reached by day 7. 24 hr after plating, culture media was changed and cells were treated with the appropriate drug or vehicle (day 0). Culture media was changed on days 3 and 6. Cellular proliferation was measured on Day 7 by quantitating the amount of tritiated thymidine ([3H]-TdR) incorporated into the celular DNA (Odham, K. G. (1977) in: Radiotracer Techniques and Applications, edited by E. A. Evans and M. Murawatsu; M. Dekker Inc. New York; 2, 823).
# [4] = system: SK-BR-3 Breast CA (E2-indep.); assay: inhibition of cell proliferation (3H-thymidine uptake), SK-BR-3; type: cell-based; details: Homo sapiens
# Method: as §1
# [5] = system: Detroit 562 Pharyngeal CA; assay: inhibition of cell proliferation (3H-thymidine uptake), Detroit 562; type: cell-based; details: Homo sapiens
# Method: as §1
# [6] = system: SCC 25 tongue SCC; assay: inhibition of cell proliferation (3H-thymidine uptake), SCC 25; type: cell-based; details: Homo sapiens
# Method: as §1
# [7] = system: H3396 (ER+) breast carcinoma subcutaneous xenografts; assay: tumor growth inhibition in athymic mice bearing H3396 xenografts; type: in vivo; details: intraperitoneal, every two days for 10 days
# Method: This potent anti-proliferative activity is also translated in vivo on athymic mice bearing H3396 (ER+) breast carcinoma subcutaneous xenografts (P. A. Trail, et al., Cancer Research, 52, p. 5693-5700 (1992). Athymic mice were implanted with 0.72 mg (60-day release) estradiol pellets (Innovative Research of America, Toledo, Ohio) one day prior to the implantation of H3396 tumors. H3396 tumors were measured in two perpendicular directions at weekly or biweekly intervals, using calipers. Tumor volume was calculated according to the equation: V=I×w^2 /2, where V=volume (mm3), I=measurement of longest axis (mm), and w=measurement of axis perpendicular to 1. In general, there were 8-10 mice in each control or treatment group. Data are presented as median tumor size for control or treated groups. Antitumor activity is expressed in terms of median TVDD values, where TVDD=T-C/TVDT; T-C is defined as the median time (days) for treated tumors to reach 500 mm3 in size minus the median time for control tumors to reach 500 mm3 in size and TVDT is the time (days) for control tumors to double in volume (250-500 mm3).
# In this experiment, the tumor growth delay was equivalent to 1.2 log cell kill at 30 mg/kg.
# [8] = system: MCF7 Breast CA (E2-dep.); assay: inhibition of cell proliferation (3H-thymidine uptake), MCF7; type: cell-based; details: Homo sapiens
# Method: as §1
# [9] = target: T1, RARβ (Homo sapiens, UniProt P10826); assay: apparent Kd for binding to RARβ; details: read-out: Kd (β)
# T1 sequence (P10826 1-455): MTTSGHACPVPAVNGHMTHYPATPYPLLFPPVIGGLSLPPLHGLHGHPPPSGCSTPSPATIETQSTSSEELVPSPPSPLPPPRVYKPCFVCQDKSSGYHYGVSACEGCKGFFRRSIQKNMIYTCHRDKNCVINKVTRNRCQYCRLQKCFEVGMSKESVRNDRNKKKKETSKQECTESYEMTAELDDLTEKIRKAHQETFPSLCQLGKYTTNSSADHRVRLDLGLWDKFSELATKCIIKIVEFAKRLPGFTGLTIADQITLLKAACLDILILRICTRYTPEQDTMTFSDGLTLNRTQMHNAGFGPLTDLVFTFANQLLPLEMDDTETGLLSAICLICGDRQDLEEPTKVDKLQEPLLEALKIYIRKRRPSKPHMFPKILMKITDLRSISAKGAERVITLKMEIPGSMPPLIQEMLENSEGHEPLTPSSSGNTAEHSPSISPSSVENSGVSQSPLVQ
# [10] = target: T2, RARγ (Homo sapiens, UniProt P13631); assay: apparent Kd for binding to RARγ; details: read-out: Kd (γ)
# T2 sequence (P13631 1-454): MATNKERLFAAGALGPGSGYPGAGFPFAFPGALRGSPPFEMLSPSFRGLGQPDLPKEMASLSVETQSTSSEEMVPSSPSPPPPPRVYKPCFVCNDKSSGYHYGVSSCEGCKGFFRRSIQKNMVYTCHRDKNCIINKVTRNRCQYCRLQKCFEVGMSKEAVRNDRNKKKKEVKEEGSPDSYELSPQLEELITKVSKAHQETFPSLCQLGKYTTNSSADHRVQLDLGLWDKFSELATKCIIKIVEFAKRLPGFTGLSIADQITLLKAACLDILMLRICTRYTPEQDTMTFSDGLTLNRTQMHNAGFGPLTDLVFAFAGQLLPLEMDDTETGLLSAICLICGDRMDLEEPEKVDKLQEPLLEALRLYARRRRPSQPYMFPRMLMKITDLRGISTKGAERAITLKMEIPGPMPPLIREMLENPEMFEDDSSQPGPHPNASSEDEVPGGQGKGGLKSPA
# [11] = system: Calu-3 Lung CA; assay: inhibition of cell proliferation (3H-thymidine uptake), Calu-3; type: cell-based; details: Homo sapiens
# Method: as §1
# [12] = target: T3, RARα (Homo sapiens, UniProt P10276); assay: apparent Kd for binding to RARα; details: read-out: Kd (α)
# T3 sequence (P10276 1-462): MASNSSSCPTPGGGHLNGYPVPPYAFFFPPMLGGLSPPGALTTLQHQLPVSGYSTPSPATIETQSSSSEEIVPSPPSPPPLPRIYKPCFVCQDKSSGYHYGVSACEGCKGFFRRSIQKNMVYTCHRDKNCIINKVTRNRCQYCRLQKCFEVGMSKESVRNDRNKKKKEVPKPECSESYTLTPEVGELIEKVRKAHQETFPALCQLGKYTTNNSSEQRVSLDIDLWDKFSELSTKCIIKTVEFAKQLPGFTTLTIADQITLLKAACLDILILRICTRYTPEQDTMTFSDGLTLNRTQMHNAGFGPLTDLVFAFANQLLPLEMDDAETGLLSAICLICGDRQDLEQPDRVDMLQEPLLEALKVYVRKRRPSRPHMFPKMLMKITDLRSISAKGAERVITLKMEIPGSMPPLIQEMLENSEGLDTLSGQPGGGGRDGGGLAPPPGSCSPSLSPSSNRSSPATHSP
# [13] = system: rhino mice; assay: rhino mouse assay, comedolytic activity (utriculi size reduction); type: in vivo; details: for ED30: Table 4, topical activity; for ED30 (30% reduction in utriculi size): rhino mouse, FIG. 1 study
# Method: (§2) The comedolytic activity of the compounds of the instant application has been evaluated by the rhino mouse assay model. The compounds were administered daily to rhino mice topically in ethanol at various concentrations for 5 days. Signs of skin irritation are evaluated at day 5 by visual inspection of the mouse skin and graded for edema, erythema (redness) and scaling (flakiness) with scales of 1-5 and 1-4, respectively. Skin samples were taken at day 7 and processed for image analysis to measure the size of utriculi.
# [14] = system: rhino mice; design: species or system rhino mouse; details: mouse, in vivo
# Method: as §2
# [15] = 7 days, 3H-thymidine, read-out: IC50
# [16] = topical daily in ethanol, 5 days
# [17] = species and concentration not given
compound,measurement,setting,value
"CC(C)(C)C#CC1=CCC(C)(C)c2ccc(/C=C/c3ccc(C(=O)O)cc3)cc21 [Compound I, 4-[(E)-(5,6-Dihydro-5,5-dimethyl-8-(3,3-dimethyl-1-butyn-1-yl)-2-naphthalenyl)ethenyl]benzoic acid]",selectivity ratio,[1],> 99
same,therapeutic index compared with TRA and analogs,[2],highly superior to TRA and to most of the closely related analogs
same,irritation to rabbit skin,"[2]; 1 mM, 14 days, FIG. 2",did not cause any irritation
same,irritation to rabbit skin,[2]; 5 mM,did not cause any signs of irritation to rabbit skin; also recorded: did not show any signs of irritation
same,Erythema score,[2]; concentration not given,0
same,"IS3, irritation in words",[2]; in rabbits at 5 mM,No irritation
same,IC50,[3]; [15],40 nM
same,IC50,[4]; [15],8 nM
same,IC50,[5]; [15],5500 nM
same,IC50,[6]; [15],9500 nM
same,tumor growth delay equivalent (log cell kill),[7]; 30 mg/kg,1.2 log cell kill
same,potency in inhibiting tumor growth compared with doxorubicin,[7]; FIG. 3,as potent as doxorubicin
same,IC50,[8]; [15],6500 nM
same,Kd,[9],1.26 nM
same,Kd,[10],25 nM
same,IC50,[11]; [15],10 nM
same,Kd,[12],2.23 nM
same,Utriculi reduction at 0.1 mM,[13]; [16],72%
same,Utriculi reduction at 1 mM,[13]; [16],100%
same,ED30,[13],55000 nM
same,ED30 (30% reduction in utriculi size),[13],55000 nM
"CCC(C)(/C=C\C1=CCC(C)(C)c2ccc(/C=C/c3ccc(C(=O)O)cc3)cc21)CC [Compound B, 4-[(E)-(5,6-Dihydro-5,5-dimethyl-8-((Z)-3-methyl-3-ethyl-1-penten-1-yl)-2-naphthalenyl)ethenyl]benzoic acid]",Erythema score,[2]; concentration not given,2.8
same,"IS3, irritation in words",[2]; [17],Irritating
same,"IS3, irritation relative to TRA",[2],<TRA
same,"Utriculi reduction (at 1.6 mM, printed in the 1 mM column)","[13]; 1.6 mM, topical daily in ethanol, 5 days",100%
"CC1=C(C#CC(C)(C)C)c2cc(/C=C/c3ccc(C(=O)O)cc3)ccc2C(C)(C)C1 [Compound A, 4-[(E)-(5,6-Dihydro-5,5-dimethyl-7-methyl-8-(3,3-dimethyl-1-butyn-1-yl)-2-naphthalenyl)ethenyl]benzoic acid]",Erythema score,[2]; concentration not given,3.1
same,"IS3, irritation in words",[14],Very irritating
same,Utriculi reduction at 0.1 mM,[13]; [16],100%
same,ED30,[13],< 100000 nM
"4-[(E)-(5,6-Dihydro-5,5-dimethyl-8-(1-methyl-1-ethane-thio)-2-naphthalenyl)ethenyl]benzoic acid [Compound D]",Erythema score,[2]; concentration not given,5.7
same,"IS3, irritation in words",[2]; [17],Very irritating
same,"IS3, irritation relative to TRA",[2],>>TRA
same,Utriculi reduction at 0.1 mM,[13]; [16],85.4%
same,ED30,[13],< 100000 nM
"CC1=C(/C=C/C(C)=C/C=C/C(C)=C/C(=O)O)C(C)(C)CCC1 [TRA, All-trans retinoic acid]",Erythema score,[2]; concentration not given,4.8
same,IS3 (concentration necessary to achieve an irritation score of 3),[2]; Table 4,0.3 mM
same,irritation to rabbit skin,"[2]; concentrations above 0.1 mM, 14 days, FIG. 2",caused significant irritation to rabbit skin
same,IC50,[3],300 nM
same,IC50,[4],1 nM
same,IC50,[5],> 10000 nM
same,IC50,[6],50 nM
same,IC50,[8],650 nM
same,IC50,[11],100 nM
same,Utriculi reduction at 0.1 mM,[13]; [16],64%
same,Utriculi reduction at 1 mM,[13]; [16],100%
same,ED30,[13],15000 nM
same,ED30 (30% reduction in utriculi size),[13],28000 nM
"CC(C)(C)/C=C\C1=CCC(C)(C)c2ccc(/C=C/c3ccc(C(=O)O)cc3)cc21 [Compound C, 4-[(E)-(5,6-Dihydro-5,5-dimethyl-8-((Z)-3,3-dimethyl-1-buten-1-yl)-2-naphthalenyl)ethenyl]benzoic acid]",selectivity ratio,[1],< 20
same,Erythema score,[2]; concentration not given,6.0
same,"IS3, irritation in words","[2]; in rabbits, concentration not given",Very irritating
same,"IS3, irritation in words",[14],Very irritating
same,"Utriculi reduction (at 0.01 mM, printed in the 0.1 mM column)","[13]; 0.01 mM, topical daily in ethanol, 5 days",30%
same,ED30,[13],80000 nM
"CC(C)(O)/C=C\C1=CCC(C)(C)c2ccc(/C=C/c3ccc(C(=O)O)cc3)cc21 [II, 4-[(E)-(5,6-Dihydro-5,5-dimethyl-8-((Z)-3-methyl-3-hydroxyl-1-buten-1-yl)-2-naphthalenyl)ethenyl]benzoic acid]",Erythema score,[2]; concentration not given,0
same,Kd,[9],2.19 nM
same,Kd,[10],1.57 nM
same,"IS3, irritation in words",[14],No irritation
same,Kd,[12],1.6 nM
same,Utriculi reduction at 0.1 mM,[13]; [16],8.4%
same,Utriculi reduction at 1 mM,[13]; [16],84%
same,ED30,[13],400000 nM
